From patent publication US20220288213A1, “INSULIN ANALOGUES WITH GLUCOSE REGULATED CONFORMATIONAL SWITCH” (Thermalin Inc., priority 2019, published 2022)

Experiments:
[1] = Alizarin Red S (ARS) competitive assay, glucose as competitor; format: binding
Protocol: Stock solutions of test compounds, competitor (polyols, i.e., fructose and glucose), and Alizarin Red S (ARS) were dissolved in 0.1 mM Sodium Phosphate, pH 7.4. In a 96-well plate, stock solutions were combined to final concentrations of 20 μm ARS, 0.1 mM test compound, and varying competitor concentrations (0, 5, 10, 15, and/or 25 mM). Final solution (75 μL) was added to each plate well. Fluorescence data was acquired on Molecular Devices SpectraMax M2 with excitation at 456 nm and emission at 600 nm. In this assay, the selectivity of synthesized constructs for glucose was determined using the ARS competitive assay. Test articles were incubated with ARS and competitors (i.e. glucose and fructose) were added at varying concentrations. ARS fluorescence increases when the molecule interacts with boronic acids. The fluorescence was measured after the addition of the competitor. A decrease in fluorescence indicates the displacement of the ARS molecule by the sensor. All data were normalized to the fluorescence of an untreated solution (ARS bound to the sensing unit). […] This was not observed when FPBA was incubated with glucose. […] These are peptides modified to include glucose sensors at the lysyl residue. DA-Z4 is an L-diaminopropionic acid modified to include two benzoxoxaboroles. DA-Z16 is an D-diaminobutyric acid modified to include two benzoxaboroles. […]

[2] = Alizarin Red S (ARS) competitive assay, fructose as competitor; format: binding; conditions: 20 μm ARS, 0.1 mM test compound, competitor 0-25 mM, pH 7.4; a decrease means ARS is displaced
Protocol: Stock solutions of test compounds, competitor (polyols, i.e., fructose and glucose), and Alizarin Red S (ARS) were dissolved in 0.1 mM Sodium Phosphate, pH 7.4. In a 96-well plate, stock solutions were combined to final concentrations of 20 μm ARS, 0.1 mM test compound, and varying competitor concentrations (0, 5, 10, 15, and/or 25 mM). Final solution (75 μL) was added to each plate well. Fluorescence data was acquired on Molecular Devices SpectraMax M2 with excitation at 456 nm and emission at 600 nm.
In this assay, the selectivity of synthesized constructs for glucose was determined using the ARS competitive assay. Test articles were incubated with ARS and competitors (i.e. glucose and fructose) were added at varying concentrations. ARS fluorescence increases when the molecule interacts with boronic acids. The fluorescence was measured after the addition of the competitor. A decrease in fluorescence indicates the displacement of the ARS molecule by the sensor. All data were normalized to the fluorescence of an untreated solution (ARS bound to the sensing unit). […] This was not observed when FPBA was incubated with glucose. […] These are peptides modified to include glucose sensors at the lysyl residue. DA-Z4 is an L-diaminopropionic acid modified to include two benzoxoxaboroles. DA-Z16 is an D-diaminobutyric acid modified to include two benzoxaboroles. […]

Compound	binding to glucose compared to monoboronic acids such as FPBA and FPBA KB28 PB29 ([1]; ARS data)	ARS fluorescence signal when treated with fructose [2]	ARS fluorescence signal decrease when incubated with glucose ([1]; 20 μm ARS, 0.1 mM test compound, competitor 0-25 mM, pH 7.4)
O=C(NC[C@H](NC(=O)c1ccc2c(c1)B(O)OC2)C(=O)O)c1ccc2c(c1)B(O)OC2 [DA-Z4, (S)-2,3-bis(1-hydroxy-1,3-dihydrobenzo[c][1,2]oxaborole-6-carboxamido)propanoic acid]	stronger binding to glucose	–	–
fluoro-phenylboronic acid [FPBA]	–	fluorescence signal decreases	not observed
